Measurements published in US9504669B2, “Spliceostatin analogs and methods for their preparation” (PFIZER INC., priority 2012, dated 2016).
Where a name gives a salt, the structure may show the parent alone.

Tests used:
Assay type in all cases: cell-based
Conditions in all cases: free compounds (natural products and synthetic analogs), cell viability 96 hours after treatment
[1] = test system: MDA-MB-361-DYT2 (breast cancer) cells; test: In vitro cell assay (MTS cell viability), MDA-MB-361-DYT2
Procedure, shortened: (§1)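 Cells seeded 24 h, then treated with antibody-drug conjugates or free drug, 3-fold serial dilutions at 10 concentrations in duplicate. Viability by MTS at 96 h as percent of untreated control; IC50 from four-parameter logistic fit.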

[2] = test system: N87 (gastric cancer) cells; test: In vitro cell assay (MTS cell viability), N87
Procedure, shortened: as §1

[3] = test system: BT474 (breast cancer) cells; test: In vitro cell assay (MTS cell viability), BT474
Procedure: Target expressing (BT474 (breast cancer), N87 (gastric cancer), HCC1954 (breast cancer), MDA-MB-361-DYT2 (breast cancer)) or non-expressing (MDA-MB-468) cells were seeded in 96-well cell culture plates for 24 hours before treatment. Cells were treated with 3-fold serially diluted antibody-drug conjugates or free compounds (i.e., no antibody conjugated to the drug) in duplicate at 10 concentrations. Cell viability was determined by CellTiter 96® AQueous One Solution Cell Proliferation MTS Assay (Promega, Madison Wis.) 96 hours after treatment. Relative cell viability was determined as percentage of untreated control. IC50 values were calculated using a four parameter logistic model #203 with XLfit v4.2 (IDBS, Guildford, Surry, UK). The potency ranged upward from 0.0002 nm. Similar procedures and techniques were employed.

Row | SMILES | IC50 [1] [nM] | IC50 [2] [nM] | IC50 [3] [nM] | IC50 ([1]; 96 h) [nM] | IC50 ([2]; 96 h) [nM] | IC50 ([3]; Homo sapiens, BT-474) [nM]
1 | CC(=O)O[C@@H](C)/C=C\C(=O)N[C@@H]1C[C@H](C)[C@H](C/C=C(C)/C=C/[C@@H]2C[C@]3(CO3)C[C@@H](CC(=O)N[C@H]3CC[C@H](N(C)C)CC3)O2)O[C@@H]1C (relative stereo) [#B87, (2S,3Z)-5-{[(2R,3R,5S,6S)-6-{(2E,4E)-5-[(3S,5S,7S)-7-(2-{[trans-4-(dimethylamino)cyclohexyl]amino}-2-oxoethyl)-1,6-dioxaspiro[2.5]oct-5-yl]-3-methylpenta-2,4-dien-1-yl}-2,5-dimethyltetrahydro-2H-pyran-3-yl]amino}-5-oxopent-3-en-2-yl acetate] | 3.47 | 0.744 | 1.21 |  |  | 
2 | CC(=O)O[C@@H](C)/C=C\C(=O)N[C@@H]1C[C@H](C)[C@H](C/C=C(C)/C=C/[C@H]2O[C@H](CC(=O)NCc3ccc(N)c(F)c3)C[C@@]3(CO3)[C@@H]2O)O[C@@H]1C [#B85, (2S,3Z)-5-{[(2R,3R,5S,6S)-6-{(2E,4E)-5-[(3R,4R,5R,7S)-7-{2-[(4-amino-3-fluorobenzyl)amino]-2-oxoethyl}-4-hydroxy-1,6-dioxaspiro[2.5]oct-5-yl]-3-methylpenta-2,4-dien-1-yl}-2,5-dimethyltetrahydro-2H-pyran-3-yl]amino}-5-oxopent-3-en-2-yl acetate] |  |  |  | 5.5 | 1.56 | 1.47
3 | CC(/C=C/[C@@H]1C[C@]2(CO2)C[C@@H](CN)O1)=C\C[C@@H]1O[C@H](C)[C@H](NC(=O)/C=C\[C@H](C)O)C[C@@H]1C [#B139, (2Z,4S)—N-[(2R,3R,5S,6S)-6-{(2E,4E)-5-[(3R,5S,7S)-7-(aminomethyl)-1,6-dioxaspiro[2.5]oct-5-yl]-3-methylpenta-2,4-dien-1-yl}-2,5-dimethyltetrahydro-2H-pyran-3-yl]-4-hydroxypent-2-enamide, acetate salt] |  |  |  | 13.4 | 6.51 | 5.49
4 | CCCNC(=O)C[C@@H]1C[C@@]2(CO2)[C@H](O)[C@@H](/C=C/C(C)=C/C[C@@H]2O[C@H](C)[C@H](NC(=O)/C=C\[C@H](C)OC(=O)C(C)C)C[C@@H]2C)O1 [#B71, (2S,3Z)-5-({(2R,3R,5S,6S)-6-[(2E,4E)-5-{(3R,4R,5R,7S)-4-hydroxy-7-[2-oxo-2-(propylamino)ethyl]-1,6-dioxaspiro[2.5]oct-5-yl}-3-methylpenta-2,4-dien-1-yl]-2,5-dimethyltetrahydro-2H-pyran-3-yl}amino)-5-oxopent-3-en-2-yl 2-methylpropanoate] |  |  |  | 1.36 | 0.451 | 1.08
5 | CC(=O)O[C@@H](C)/C=C\C(=O)N[C@@H]1C[C@H](C)[C@H](C/C=C(C)/C=C/[C@H]2O[C@H](CC(=O)N[C@H]3CC[C@H](N(C)C)CC3)C[C@@]3(CO3)[C@@H]2O)O[C@@H]1C (relative stereo) [#B86, (2S,3Z)-5-{[(2R,3R,5S,6S)-6-{(2E,4E)-5-[(3R,4R,5R,7S)-7-(2-{[trans-4-(dimethylamino)cyclohexyl]amino}-2-oxoethyl)-4-hydroxy-1,6-dioxaspiro[2.5]oct-5-yl]-3-methylpenta-2,4-dien-1-yl}-2,5-dimethyltetrahydro-2H-pyran-3-yl]amino}-5-oxopent-3-en-2-yl acetate] | 73.3 | 14 | 20.1 |  |  | 
6 | CC(=O)O[C@@H](C)/C=C\C(=O)N[C@@H]1C[C@H](C)[C@H](C/C=C(C)/C=C/[C@@H]2C[C@]3(CO3)C[C@@H](CC(=O)NCc3ccccc3)O2)O[C@@H]1C [#B101, (2S,3Z)-5-({(2R,3R,5S,6S)-6-[(2E,4E)-5-{(3S,5S,7S)-7-[2-(benzylamino)-2-oxoethyl]-1,6-dioxaspiro[2.5]oct-5-yl}-3-methylpenta-2,4-dien-1-yl]-2,5-dimethyltetrahydro-2H-pyran-3-yl}amino)-5-oxopent-3-en-2-yl acetate] |  |  |  | 34.8 | 10.4 | 25.6
7 | CC(=O)O[C@@H](C)/C=C\C(=O)N[C@@H]1C[C@H](C)[C@H](C/C=C(C)/C=C/[C@H]2O[C@H](CC(N)=O)C[C@@]3(CO3)[C@@H]2O)O[C@@H]1C [#B9, (2S,3Z)-5-{[(2R,3R,5S,6S)-6-{(2E,4E)-5-[(3R,4R,5R,7S)-7-(2-amino-2-oxoethyl)-4-hydroxy-1,6-dioxaspiro[2.5]oct-5-yl]-3-methylpenta-2,4-dien-1-yl}-2,5-dimethyltetrahydro-2H-pyran-3-yl]amino}-5-oxopent-3-en-2-yl acetate] |  |  |  | 5.26 | 1.34 | 3.26
8 | CSCCN(C)C(=O)O[C@@H](C)/C=C\C(=O)N[C@@H]1C[C@H](C)[C@H](C/C=C(C)/C=C/[C@H]2O[C@H](CC(N)=O)C[C@@]3(CO3)[C@@H]2O)O[C@@H]1C [#B130, (2S,3Z)-5-{[(2R,3R,5S,6S)-6-{(2E,4E)-5-[(3R,4R,5R,7S)-7-(2-amino-2-oxoethyl)-4-hydroxy-1,6-dioxaspiro[2.5]oct-5-yl]-3-methylpenta-2,4-dien-1-yl}-2,5-dimethyltetrahydro-2H-pyran-3-yl]amino}-5-oxopent-3-en-2-yl methyl[2-(methylsulfanyl)ethyl]carbamate] |  |  |  | 4.5 | 2.98 | 1.5
9 | CC(/C=C/[C@@H]1C[C@]2(CO2)C[C@@H](CC(N)=O)O1)=C\C[C@@H]1O[C@H](C)[C@H](NC(=O)/C=C\[C@H](C)OC(=O)N2CCCCC2)C[C@@H]1C [#B40, (2S,3Z)-5-{[(2R,3R,5S,6S)-6-{(2E,4E)-5-[(3S,5S,7S)-7-(2-amino-2-oxoethyl)-1,6-dioxaspiro[2.5]oct-5-yl]-3-methylpenta-2,4-dien-1-yl}-2,5-dimethyltetrahydro-2H-pyran-3-yl]amino}-5-oxopent-3-en-2-yl piperidine-1-carboxylate] |  |  |  | 5.84 | 6.76 | 1.86
10 | CC(=O)O[C@@H](C)/C=C\C(=O)N[C@@H]1C[C@H](C)[C@H](C/C=C(C)/C=C/[C@@H]2C[C@]3(CO3)C[C@@H](CC(=O)NCc3ccc(S(=O)(=O)N(C)C)cc3)O2)O[C@@H]1C [#B98, (2S,3Z)-5-{[(2R,3R,5S,6S)-6-{(2E,4E)-5-[(3S,5S,7S)-7-(2-{[4-(dimethylsulfamoyl)benzyl]amino}-2-oxoethyl)-1,6-dioxaspiro[2.5]oct-5-yl]-3-methylpenta-2,4-dien-1-yl}-2,5-dimethyltetrahydro-2H-pyran-3-yl]amino}-5-oxopent-3-en-2-yl acetate] |  |  |  | 8.7 | 2.55 | 5.75
11 | CNS(=O)(=O)c1ccc(CNC(=O)C[C@@H]2C[C@@]3(CO3)[C@H](O)[C@@H](/C=C/C(C)=C/C[C@@H]3O[C@H](C)[C@H](NC(=O)/C=C\[C@H](C)OC(C)=O)C[C@@H]3C)O2)cc1 [#B94, (2S,3Z)-5-{[(2R,3R,5S,6S)-6-{(2E,4E)-5-[(3R,4R,5R,7S)-4-hydroxy-7-(2-{[4-(methylsulfamoyl)benzyl]amino}-2-oxoethyl)-1,6-dioxaspiro[2.5]oct-5-yl]-3-methylpenta-2,4-dien-1-yl}-2,5-dimethyltetrahydro-2H-pyran-3-yl]amino}-5-oxopent-3-en-2-yl acetate] |  |  |  | 37.4 | 4.9 | 18.6
12 | CC(=O)O[C@@H](C)/C=C\C(=O)N[C@@H]1C[C@H](C)[C@H](C/C=C(C)/C=C/[C@H]2O[C@H](CN)C[C@@]3(CO3)[C@@H]2O)O[C@@H]1C [#B147, (2S,3Z)-5-{[(2R,3R,5S,6S)-6-{(2E,4E)-5-[(3R,4R,5R,7S)-7-(aminomethyl)-4-hydroxy-1,6-dioxaspiro[2.5]oct-5-yl]-3-methylpenta-2,4-dien-1-yl}-2,5-dimethyltetrahydro-2H-pyran-3-yl]amino}-5-oxopent-3-en-2-yl acetate, acetate salt] |  |  |  | 17.2 | 9.92 | 6.81
13 | CC(=O)O[C@@H](C)/C=C\C(=O)N[C@@H]1C[C@H](C)[C@H](C/C=C(C)/C=C/[C@@H]2C[C@]3(CO3)C[C@@H](CC(=O)NCc3ccc(S(N)(=O)=O)cc3)O2)O[C@@H]1C [#B97, (2S,3Z)-5-{[(2R,3R,5S,6S)-2,5-dimethyl-6-{(2E,4E)-3-methyl-5-[(3S,5S,7S)-7-{2-oxo-2-[(4-sulfamoylbenzyl)amino]ethyl}-1,6-dioxaspiro[2.5]oct-5-yl]penta-2,4-dien-1-yl}tetrahydro-2H-pyran-3-yl]amino}-5-oxopent-3-en-2-yl acetate] |  |  |  | 41.6 | 5.09 | 8.83
14 | CC(=O)O[C@@H](C)/C=C\C(=O)N[C@@H]1C[C@H](C)[C@H](C/C=C(C)/C=C/[C@@H]2C[C@]3(CO3)C[C@@H](CC(=O)N[C@H]3CC[C@@H](N(C)C)CC3)O2)O[C@@H]1C (relative stereo) [#B90, (2S,3Z)-5-{[(2R,3R,5S,6S)-6-{(2E,4E)-5-[(3S,5S,7S)-7-(2-{[cis-4-(dimethylamino)cyclohexyl]amino}-2-oxoethyl)-1,6-dioxaspiro[2.5]oct-5-yl]-3-methylpenta-2,4-dien-1-yl}-2,5-dimethyltetrahydro-2H-pyran-3-yl]amino}-5-oxopent-3-en-2-yl acetate] | 3.9 | 0.87 | 1.26 |  |  | 
